Data from patent publication US20250145566A1, “PHENETHYLAMINE DERIVATIVES, COMPOSITIONS, AND METHODS OF USE” (Cybin IRL Limited, priority 2022, published 2025).
Read-outs that look alike come from different tables or passages of the source.

Key:
5-HT2A (h) [1] = molecular target: T1, 5-HT2A (h) (Homo sapiens, UniProt P28223); assay: 5-HT2A (h) agonist radioligand [125I](±)DOI binding
T1 construct: expressed in transfected cells; host or cells: HEK-293 cells

5-HT2B (h) [2] = molecular target: T2, 5-HT2B (h) (Homo sapiens, UniProt P41595); assay: 5-HT2B (h) agonist radioligand [125I](±)DOI binding
T2 construct: expressed in transfected cells; host or cells: CHO cells
Description: (§1) Samples were then analyzed as described above.

5-HT2C (h) [3] = molecular target: T3, 5-HT2C (h) (Homo sapiens, UniProt P28335); assay: 5-HT2C (h) agonist radioligand [125I](±)DOI binding
T3 construct: expressed in transfected cells; host or cells: HEK-293 cells
T3 sequence (P28335 33-458): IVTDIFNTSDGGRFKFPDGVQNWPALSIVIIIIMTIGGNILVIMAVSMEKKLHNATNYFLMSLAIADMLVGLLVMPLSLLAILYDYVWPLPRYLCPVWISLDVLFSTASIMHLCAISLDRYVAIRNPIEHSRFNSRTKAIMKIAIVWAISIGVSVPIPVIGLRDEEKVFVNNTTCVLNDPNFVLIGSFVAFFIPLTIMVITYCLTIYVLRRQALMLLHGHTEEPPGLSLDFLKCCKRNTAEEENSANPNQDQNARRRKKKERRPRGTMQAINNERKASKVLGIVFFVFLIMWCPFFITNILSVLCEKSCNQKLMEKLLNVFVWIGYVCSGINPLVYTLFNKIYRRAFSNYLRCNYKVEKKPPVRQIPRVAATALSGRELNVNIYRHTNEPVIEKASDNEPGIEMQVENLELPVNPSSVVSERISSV
Description: as §1

[4] = molecular target: T4, norepinephrine transporter (h) (Homo sapiens, UniProt P23975); assay: norepinephrine transporter (h) binding, [3H]nisoxetine; conditions: at 10 μM; table calls these values “No Binding”
T4 construct: expressed in transfected cells; host or cells: CHO cells

dopamine transporter (h) = molecular target: T5, dopamine transporter (h) (Homo sapiens, UniProt Q01959); assay: dopamine transporter (h) binding, [3H]BTCP
T5 construct: expressed in transfected cells; host or cells: CHO cells

5-HT transporter (h) [5] = molecular target: T6, 5-HT transporter (h) (Homo sapiens, UniProt P31645); assay: 5-HT transporter (h) binding, [3H]imipramine
T6 construct: expressed in transfected cells; host or cells: CHO cells

5-HT2A (h) [6] = molecular target: T1, 5-HT2A (h); assay: 5-HT2A (h) agonist effect, IP1 HTRF functional assay; assay type: cell-based
5-HT2B (h) [7] = molecular target: T2, 5-HT2B (h); assay: 5-HT2B (h) agonist effect, IP1 HTRF functional assay; assay type: cell-based
5-HT2C (h) [8] = molecular target: T3, 5-HT2C (h); assay: 5-HT2C (h) agonist effect, IP1 HTRF functional assay; assay type: cell-based
[9] = molecular target: T7, Norepinephrine transporter (Homo sapiens, UniProt P23975); assay: Norepinephrine transporter uptake (h); assay type: cell-based
Dopamine transporter [10] = molecular target: T8, Dopamine transporter (Homo sapiens, UniProt Q01959); assay: Dopamine transporter uptake (h); assay type: cell-based
Serotonin transporter = molecular target: T9, Serotonin transporter (Rattus norvegicus, UniProt P31652); assay: Serotonin transporter uptake, rat brain synaptosomes; assay type: biochemical
T9 construct: from tissue

[11] = molecular target: T7, Norepinephrine transporter; conditions: racemic, cited from earlier work
Dopamine transporter [12] = molecular target: T8, Dopamine transporter; conditions: variable numbers in the literature, racemic, cited from earlier work
5-HT2A (h) [13] = molecular target: T1, 5-HT2A (h); conditions: read-out: Binding 5-HT2A Ki; antagonist radioligand; literature, racemic; cited from earlier work
[14] = molecular target: T4, norepinephrine transporter (h); conditions: read-out: Binding NET Ki; literature, racemic; cited from earlier work
5-HT transporter (h) [15] = molecular target: T6, 5-HT transporter (h); conditions: read-out: Binding SERT Ki; literature, racemic; cited from earlier work
5-HT2A (h) [16] = molecular target: T1, 5-HT2A (h); conditions: literature, single enantiomers, cited from earlier work; for EC50: read-out: Function 5-HT2A EC50
5-HT2C (h) [17] = molecular target: T3, 5-HT2C (h); conditions: literature, single enantiomers; cited from earlier work
5-HT2A receptor = molecular target: T10, 5-HT2A receptor (Homo sapiens, UniProt P28223); conditions: literature value (Rickli et al. 2016); cited from earlier work
T10 construct: host or cells: HEK293 (ATCC CRL-1573), transient, membranes

[18] = Hill coefficient, reference compound result
[19] = agonist radioligand [125I](±)DOI, reference compound result
[20] = read-out: Function DAT IC50, lower end of literature range
[21] = read-out: Function DAT IC50, upper end of literature range

T7 sequence (P23975 whole entry): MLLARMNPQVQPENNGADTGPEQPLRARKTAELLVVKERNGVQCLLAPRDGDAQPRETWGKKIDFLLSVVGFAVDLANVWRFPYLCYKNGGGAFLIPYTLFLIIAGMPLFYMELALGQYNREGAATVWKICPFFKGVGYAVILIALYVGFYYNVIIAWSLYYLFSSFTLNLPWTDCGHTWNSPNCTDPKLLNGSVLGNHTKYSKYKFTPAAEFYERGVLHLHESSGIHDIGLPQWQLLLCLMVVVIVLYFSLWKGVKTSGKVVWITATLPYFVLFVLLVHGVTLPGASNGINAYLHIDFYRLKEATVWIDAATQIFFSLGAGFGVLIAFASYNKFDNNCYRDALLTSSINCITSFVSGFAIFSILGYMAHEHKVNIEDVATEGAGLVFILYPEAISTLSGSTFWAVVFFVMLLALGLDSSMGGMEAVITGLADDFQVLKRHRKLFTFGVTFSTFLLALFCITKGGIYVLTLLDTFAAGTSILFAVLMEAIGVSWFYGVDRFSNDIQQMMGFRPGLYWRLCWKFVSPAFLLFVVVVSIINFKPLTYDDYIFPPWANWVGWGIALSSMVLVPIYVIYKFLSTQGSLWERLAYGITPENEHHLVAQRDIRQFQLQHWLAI
T8 sequence (Q01959 whole entry): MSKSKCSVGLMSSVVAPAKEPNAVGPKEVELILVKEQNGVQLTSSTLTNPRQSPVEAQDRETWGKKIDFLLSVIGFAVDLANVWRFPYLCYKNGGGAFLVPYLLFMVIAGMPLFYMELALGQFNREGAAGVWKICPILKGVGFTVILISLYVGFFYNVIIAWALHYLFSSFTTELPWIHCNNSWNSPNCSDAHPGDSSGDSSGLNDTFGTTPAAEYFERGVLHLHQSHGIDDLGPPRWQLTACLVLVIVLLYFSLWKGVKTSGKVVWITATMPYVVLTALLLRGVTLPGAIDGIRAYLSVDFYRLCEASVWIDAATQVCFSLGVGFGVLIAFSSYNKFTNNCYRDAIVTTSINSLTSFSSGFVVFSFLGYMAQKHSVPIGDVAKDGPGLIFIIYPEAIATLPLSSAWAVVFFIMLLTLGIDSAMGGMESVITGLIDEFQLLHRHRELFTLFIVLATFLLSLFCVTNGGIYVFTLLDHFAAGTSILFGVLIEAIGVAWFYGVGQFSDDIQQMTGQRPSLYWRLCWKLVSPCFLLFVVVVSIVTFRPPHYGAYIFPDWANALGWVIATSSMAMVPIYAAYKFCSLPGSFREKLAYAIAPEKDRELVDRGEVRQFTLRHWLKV
T2 sequence (P41595 whole entry): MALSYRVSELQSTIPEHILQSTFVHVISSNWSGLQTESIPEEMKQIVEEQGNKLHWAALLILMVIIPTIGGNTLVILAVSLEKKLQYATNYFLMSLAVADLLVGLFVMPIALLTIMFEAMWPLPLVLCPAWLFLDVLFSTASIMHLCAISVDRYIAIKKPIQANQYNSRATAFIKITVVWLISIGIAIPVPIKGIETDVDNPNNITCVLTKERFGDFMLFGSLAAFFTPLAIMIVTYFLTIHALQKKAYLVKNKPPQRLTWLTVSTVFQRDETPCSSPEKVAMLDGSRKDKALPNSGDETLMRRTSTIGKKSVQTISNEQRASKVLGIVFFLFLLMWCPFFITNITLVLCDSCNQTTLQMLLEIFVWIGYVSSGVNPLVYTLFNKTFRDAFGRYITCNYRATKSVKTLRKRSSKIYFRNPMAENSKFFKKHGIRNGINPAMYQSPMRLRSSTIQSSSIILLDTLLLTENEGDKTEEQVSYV
T9 sequence (P31652 whole entry): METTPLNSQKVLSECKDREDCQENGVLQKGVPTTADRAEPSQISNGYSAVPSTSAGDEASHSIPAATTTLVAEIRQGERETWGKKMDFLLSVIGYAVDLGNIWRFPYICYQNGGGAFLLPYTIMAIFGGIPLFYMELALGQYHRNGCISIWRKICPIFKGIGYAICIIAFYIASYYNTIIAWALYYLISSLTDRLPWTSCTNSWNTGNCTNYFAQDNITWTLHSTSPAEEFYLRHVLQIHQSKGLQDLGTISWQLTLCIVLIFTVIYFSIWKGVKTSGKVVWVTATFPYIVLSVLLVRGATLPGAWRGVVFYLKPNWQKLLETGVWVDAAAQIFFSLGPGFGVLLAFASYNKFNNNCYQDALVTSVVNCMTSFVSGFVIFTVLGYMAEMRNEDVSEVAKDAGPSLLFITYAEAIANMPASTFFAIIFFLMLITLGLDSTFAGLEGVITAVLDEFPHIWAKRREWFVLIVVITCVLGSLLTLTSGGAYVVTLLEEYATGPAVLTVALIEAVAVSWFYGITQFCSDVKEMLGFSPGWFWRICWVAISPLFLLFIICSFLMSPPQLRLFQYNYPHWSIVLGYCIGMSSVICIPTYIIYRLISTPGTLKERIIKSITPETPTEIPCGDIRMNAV
T1 sequence (P28223 whole entry): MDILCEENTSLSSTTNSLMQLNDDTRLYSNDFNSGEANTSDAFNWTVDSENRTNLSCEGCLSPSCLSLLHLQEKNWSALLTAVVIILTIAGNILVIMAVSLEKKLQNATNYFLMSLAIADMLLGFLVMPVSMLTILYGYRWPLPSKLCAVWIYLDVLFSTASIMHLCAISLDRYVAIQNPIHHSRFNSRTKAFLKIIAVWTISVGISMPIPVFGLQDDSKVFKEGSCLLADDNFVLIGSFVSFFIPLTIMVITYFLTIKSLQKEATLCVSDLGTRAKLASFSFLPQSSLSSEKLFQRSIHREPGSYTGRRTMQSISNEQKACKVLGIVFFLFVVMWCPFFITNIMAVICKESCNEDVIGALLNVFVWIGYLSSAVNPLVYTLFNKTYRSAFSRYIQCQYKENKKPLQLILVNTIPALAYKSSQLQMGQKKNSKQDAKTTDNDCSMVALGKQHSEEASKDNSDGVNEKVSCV
T6 sequence (P31645 whole entry): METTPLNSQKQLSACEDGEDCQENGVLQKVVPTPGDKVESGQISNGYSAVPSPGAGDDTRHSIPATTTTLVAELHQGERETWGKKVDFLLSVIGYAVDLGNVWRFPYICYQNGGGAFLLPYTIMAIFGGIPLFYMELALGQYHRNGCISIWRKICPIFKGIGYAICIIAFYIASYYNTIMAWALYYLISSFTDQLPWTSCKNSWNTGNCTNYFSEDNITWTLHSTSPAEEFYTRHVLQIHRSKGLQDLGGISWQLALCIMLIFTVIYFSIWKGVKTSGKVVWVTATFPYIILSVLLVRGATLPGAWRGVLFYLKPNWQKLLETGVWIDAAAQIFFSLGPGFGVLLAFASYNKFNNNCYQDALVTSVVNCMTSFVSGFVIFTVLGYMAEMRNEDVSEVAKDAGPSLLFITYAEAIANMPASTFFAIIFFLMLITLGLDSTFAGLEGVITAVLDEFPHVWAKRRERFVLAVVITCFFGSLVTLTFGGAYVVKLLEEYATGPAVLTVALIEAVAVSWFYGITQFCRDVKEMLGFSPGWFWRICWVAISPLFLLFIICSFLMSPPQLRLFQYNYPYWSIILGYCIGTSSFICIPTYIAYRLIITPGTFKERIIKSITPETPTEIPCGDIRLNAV
T4 sequence (P23975 whole entry): as the sequence (P23975 whole entry) above
T5 sequence (Q01959 whole entry): as the sequence (Q01959 whole entry) above
T10 sequence (P28223 whole entry): as the sequence (P28223 whole entry) above

In the case of `COc1cc(CC(C)N)c(OC)cc1I` (racemic) [(±)DOI], the nH (5-HT2A (h) [1]; [18]) is reported as 1.0, the nH (5-HT2B (h) [2]; [18]) is reported as 1.1 and the IC50 (5-HT2B (h) [2]; [19]) is reported as 3.8 nM. It also gave a Ki (5-HT2B (h) [2]; [19]) of 1.9 nM, a nH (5-HT2C (h) [3]; [18]) of 0.9 and an IC50 (5-HT2C (h) [3]; [19]) of 0.37 nM. The Ki (5-HT2C (h) [3]; [19]) was 0.33 nM.
For `CC(N)Cc1ccc2c(c1)OCS2` (racemic) [II-16 (racemic)], the “Binding 5-HT2A (agonist radioligand), % competition” value (5-HT2A (h) [1]; at 10 μM) was 94.4% competition, the “Binding 5-HT2B (agonist radioligand), % competition” value (5-HT2B (h) [2]; at 10 μM) was 100.1% competition and the “Binding 5-HT2C (agonist radioligand), % competition” value (5-HT2C (h) [3]; at 10 μM) was 98.4% competition. For the same compound, the “Binding NET (antagonist radioligand), % competition” value [4] was 25.2% competition, the “Binding DAT (antagonist radioligand), % competition” value (dopamine transporter (h); at 10 μM, table calls these values “No Binding”) was 15.7% competition and the “Binding SERT (antagonist radioligand), % competition” value (5-HT transporter (h) [5]; at 10 μM) was 68.1% competition. For the same compound, the EC50 (5-HT2A (h) [6]; IP-1, estimated from four concentrations, read-out: Function 5-HT2A Estimated EC50) was 2500 nM, the Emax at 10 µM (5-HT2A (h) [6]; at 10 μM, relative to 5-HT, read-out: Function 5-HT2A EMAX) was 89.8% and the “Function 5-HT2A (IP-1, efficacy relative to 5-HT), agonist type” value (5-HT2A (h) [6]; tested at 1, 3, 10, 100 μM) was “Nearly full agonist -”. For the same compound, the EC50 (5-HT2B (h) [7]; Gq-IP1, estimated from four concentrations, read-out: Function 5-HT2B Estimated EC50) was under 500 nM, the Emax at 1 µM (5-HT2B (h) [7]; at 1 μM, relative to 5-HT, read-out: Function 5-HT2B EMAX) was 100% and the “Function 5-HT2B (Gq-IP1, efficacy relative to 5-HT), agonist type” value (5-HT2B (h) [7]; tested at 1, 3, 10, 100 μM) was “Full agonist -”. The EC50 (5-HT2C (h) [8]; Gq-IP1, estimated from four concentrations, read-out: Function 5-HT2C Estimated EC50) was under 800 nM, the Emax at 10 µM (5-HT2C (h) [8]; at 10 μM, relative to 5-HT, read-out: Function 5-HT2C EMAX) was 99.3% and the “Function 5-HT2C (Gq-IP1, efficacy relative to 5-HT), agonist type” value (5-HT2C (h) [8]; tested at 1, 3, 10, 100 μM) was “Full agonist -”. For the same compound, the inhibition at 10 µM ([9]; at 10 μM, read-out: Function NET, inhibition of NET) was 93.5%, the IC50 ([9]; blocking reuptake of NE, read-out: Function NET Estimated IC50) was under 1000 nM and the “Function NET (blocking reuptake of NE), efficacy in words” value ([9]; tested at 1, 10, 100 μM) was “Near full efficacy,”. The inhibition at 100 µM (Dopamine transporter [10]; at 100 μM, read-out: Function DAT, inhibition of DAT) was 99.1%, the IC50 (Dopamine transporter [10]; blocking reuptake of DA, read-out: Function DAT Estimated IC50) was about 1000 nM and the “Function DAT (blocking reuptake of DA), efficacy in words” value (Dopamine transporter [10]; tested at 1, 10, 100 μM) was “Full efficacy,”. For the same compound, the inhibition at up to 100 µM (Serotonin transporter; across dose range tested (1, 3, 10, 100 μM), read-out: Function SERT, inhibition of SERT) was 95.3 to 106%, the IC50 (Serotonin transporter; blocking reuptake of 5-HT, read-out: Function SERT Estimated IC50) was under 200 nM and the “Function SERT (blocking reuptake of 5-HT), efficacy in words” value (Serotonin transporter; tested at 1, 3, 10, 100 μM) was “Full efficacy,”.
`c1ccc2sc(C3(N4CCCCC4)CCCCC3)cc2c1` [BTCP, reference compound] showed a nH (dopamine transporter (h); [18]) of 1.0.
For `CC(N)Cc1ccc2c(c1)OCO2` (centres unmarked) [MDA, 3,4-methylenedioxyamphetamine], the IC50 ([11]; read-out: Function NET IC50, literature) is listed as about 300 nM, the IC50 (Dopamine transporter [12]; [20]) is listed as at least 890 nM and the IC50 (Dopamine transporter [12]; [21]) is listed as at most 21000 nM.
For `CNC(C)Cc1ccc2c(c1)OCO2` (centres unmarked) [MDMA, 3,4-methylenedioxymethamphetamine], the Ki (5-HT2A (h) [13]) is listed as 7800 nM, the Ki [14] is listed as over 10000 nM and the Ki (5-HT transporter (h) [15]) is listed as over 10000 nM. The IC50 ([11]; read-out: Function NET IC50, lower end of literature range, variable numbers in the literature) was at least 108 nM, the IC50 ([11]; read-out: Function NET IC50, upper end of literature range, variable numbers in the literature) was at most 6600 nM and the IC50 (Dopamine transporter [12]; [20]) was at least 410 nM. The IC50 (Dopamine transporter [12]; [21]) was at most 17000 nM.
In the case of `CN[C@H](C)Cc1ccc2c(c1)OCO2` [R-MDMA], the “Function 5-HT2A EMAX” value (5-HT2A (h) [16]) is given as “EMAX = 21%”, the EC50 (5-HT2A (h) [16]) is given as 3100 nM and the “Function 5-HT2C EMAX” value (5-HT2C (h) [17]) is given as “EMAX = 27%”.
In the case of `COc1cc(CCN)cc(OC)c1OC` [Reference Compound 1, 3,4,5-trimethoxyphenethylamine], the Ki (5-HT2A receptor) is given as 6300 nM.
For `CN[C@@H](C)Cc1ccc2c(c1)OCO2` [S-MDMA], the “Function 5-HT2A EMAX” value (5-HT2A (h) [16]) is given as “EMAX = 9%”, the EC50 (5-HT2A (h) [16]) is given as 10300 nM and the “Function 5-HT2C EMAX” value (5-HT2C (h) [17]) is given as “EMAX = 53%”.
With `CN(C)CCCN1c2ccccc2CCc2ccccc21` [imipramine, reference compound] the nH (5-HT transporter (h) [5]; [18]) was 1.2.
